Assay [1] deals with Macrophage-stimulating protein receptor (Homo sapiens) (UniProt Q04912). Kind of assay: Inhibition of human RON/MST1R using KKSRGDYMTMQIG as substrate at 1 uM in presence of 32P-ATP by Hotspot assay relative to control.
The target in assay [2] is T1, cGMP-dependent protein kinase 1 (Homo sapiens) (UniProt Q13976).
T1 sequence (whole entry): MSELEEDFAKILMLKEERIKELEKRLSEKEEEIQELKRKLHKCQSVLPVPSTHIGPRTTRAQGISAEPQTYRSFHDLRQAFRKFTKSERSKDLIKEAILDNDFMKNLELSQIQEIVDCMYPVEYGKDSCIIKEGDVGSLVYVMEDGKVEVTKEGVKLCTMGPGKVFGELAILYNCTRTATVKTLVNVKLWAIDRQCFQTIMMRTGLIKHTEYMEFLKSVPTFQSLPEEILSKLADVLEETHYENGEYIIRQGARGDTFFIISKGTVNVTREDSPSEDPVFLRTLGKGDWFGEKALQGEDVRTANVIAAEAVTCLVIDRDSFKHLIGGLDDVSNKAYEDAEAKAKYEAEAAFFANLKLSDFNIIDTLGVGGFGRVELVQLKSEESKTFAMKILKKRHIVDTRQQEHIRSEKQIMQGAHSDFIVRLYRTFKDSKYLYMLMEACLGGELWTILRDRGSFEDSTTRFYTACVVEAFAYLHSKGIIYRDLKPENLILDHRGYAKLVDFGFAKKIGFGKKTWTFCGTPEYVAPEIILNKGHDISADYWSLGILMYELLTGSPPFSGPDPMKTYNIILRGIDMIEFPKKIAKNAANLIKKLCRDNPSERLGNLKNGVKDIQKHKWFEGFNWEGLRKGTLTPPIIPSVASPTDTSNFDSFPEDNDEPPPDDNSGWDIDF
Kind of assay: Inhibition of human PKG1b using LRRASLG as substrate at 1 uM in presence of 32P-ATP by Hotspot assay relative to control; values are per cent of control.

For a further assay, the species on record is Homo sapiens. Kind of assay: Inhibition of human PKA using LCGRTGRRNSI as substrate at 1 uM in presence of 32P-ATP by Hotspot assay relative to control; values are per cent of control.
The target in assay [3] is Tyrosine-protein kinase HCK (Homo sapiens) (UniProt P08631). Kind of assay: Inhibition of human HCK using KVEKIGEGTYGVVYK as substrate at 1 uM in presence of 32P-ATP by Hotspot assay relative to control; values are per cent of control.
Tyrosine-protein kinase HCK (Homo sapiens), sequence (P08631 2-526 limits assumed): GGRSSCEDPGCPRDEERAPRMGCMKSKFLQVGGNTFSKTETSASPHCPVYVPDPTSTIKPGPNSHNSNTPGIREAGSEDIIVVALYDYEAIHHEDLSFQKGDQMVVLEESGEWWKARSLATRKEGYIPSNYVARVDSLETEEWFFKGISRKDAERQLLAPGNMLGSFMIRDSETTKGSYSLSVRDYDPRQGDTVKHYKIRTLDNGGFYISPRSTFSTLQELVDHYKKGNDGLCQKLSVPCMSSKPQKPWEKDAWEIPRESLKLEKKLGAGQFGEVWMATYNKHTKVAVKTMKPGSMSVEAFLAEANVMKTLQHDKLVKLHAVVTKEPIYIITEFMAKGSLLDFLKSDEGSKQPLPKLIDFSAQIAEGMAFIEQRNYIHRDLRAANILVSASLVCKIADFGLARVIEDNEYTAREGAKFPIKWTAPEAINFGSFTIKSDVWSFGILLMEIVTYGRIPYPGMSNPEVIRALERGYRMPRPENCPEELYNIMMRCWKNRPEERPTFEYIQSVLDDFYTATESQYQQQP
The target in assay [4] is Protein kinase C delta type (Homo sapiens) (UniProt Q05655). Kind of assay: Inhibition of human PKCd using ERMRPRKRQGSVRRRV as substrate at 1 uM in presence of 32P-ATP by Hotspot assay relative to control; values are per cent of control.
Protein kinase C delta type (Homo sapiens), sequence (Q05655 whole entry, looked up): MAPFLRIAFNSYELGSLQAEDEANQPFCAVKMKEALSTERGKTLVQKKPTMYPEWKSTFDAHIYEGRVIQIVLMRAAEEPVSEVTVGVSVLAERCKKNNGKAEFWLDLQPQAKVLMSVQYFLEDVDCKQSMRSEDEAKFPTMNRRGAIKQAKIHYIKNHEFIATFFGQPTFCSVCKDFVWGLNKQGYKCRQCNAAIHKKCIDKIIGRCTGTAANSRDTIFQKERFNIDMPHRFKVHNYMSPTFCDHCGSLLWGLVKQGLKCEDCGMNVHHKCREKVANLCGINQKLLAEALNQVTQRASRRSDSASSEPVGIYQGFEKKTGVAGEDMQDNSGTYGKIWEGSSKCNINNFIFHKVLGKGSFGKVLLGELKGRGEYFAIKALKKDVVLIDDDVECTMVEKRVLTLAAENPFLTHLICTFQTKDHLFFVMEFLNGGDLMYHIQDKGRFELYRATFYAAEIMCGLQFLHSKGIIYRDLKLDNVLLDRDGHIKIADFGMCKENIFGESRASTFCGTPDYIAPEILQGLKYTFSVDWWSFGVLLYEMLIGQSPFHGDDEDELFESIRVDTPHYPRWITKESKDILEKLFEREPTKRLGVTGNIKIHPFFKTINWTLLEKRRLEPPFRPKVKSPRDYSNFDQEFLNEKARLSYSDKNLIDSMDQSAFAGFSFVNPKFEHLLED
Assay [5] deals with Protein-tyrosine kinase 6 (Homo sapiens) (UniProt Q13882). Kind of assay: Inhibition of human BRK using poly[Glu:Tyr] (4:1) as substrate at 1 uM in presence of 32P-ATP by Hotspot assay relative to control; values are per cent of control.
Protein-tyrosine kinase 6 (Homo sapiens), sequence (Q13882 whole entry, looked up): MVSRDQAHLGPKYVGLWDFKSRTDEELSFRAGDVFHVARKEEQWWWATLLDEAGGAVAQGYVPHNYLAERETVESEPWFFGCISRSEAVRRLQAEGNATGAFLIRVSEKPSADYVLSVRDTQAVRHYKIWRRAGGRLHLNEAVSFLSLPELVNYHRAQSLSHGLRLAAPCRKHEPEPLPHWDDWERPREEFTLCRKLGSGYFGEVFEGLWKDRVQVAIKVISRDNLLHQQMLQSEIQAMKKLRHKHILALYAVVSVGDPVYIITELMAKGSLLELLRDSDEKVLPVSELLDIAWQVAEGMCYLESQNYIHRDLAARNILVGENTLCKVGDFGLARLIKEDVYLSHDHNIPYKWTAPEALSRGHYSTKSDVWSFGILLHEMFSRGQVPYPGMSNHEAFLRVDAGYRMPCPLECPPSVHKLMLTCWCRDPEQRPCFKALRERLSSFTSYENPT
Assay [6] concerns the target Ephrin type-A receptor 5 (Homo sapiens) (UniProt P54756). In words: Inhibition of human EPHA5 using poly[Glu:Tyr] (4:1) as substrate at 1 uM in presence of 32P-ATP by Hotspot assay relative to control; values are per cent of control.
The target of assay [7] is Serine/threonine-protein kinase 26 (Homo sapiens) (UniProt Q9P289). Kind of assay: Inhibition of human MST4 using myelin basic protein as substrate at 1 uM in presence of 32P-ATP by Hotspot assay relative to control; values are per cent of control.
Serine/threonine-protein kinase 26 (Homo sapiens), sequence (Q9P289 2-416 limits assumed): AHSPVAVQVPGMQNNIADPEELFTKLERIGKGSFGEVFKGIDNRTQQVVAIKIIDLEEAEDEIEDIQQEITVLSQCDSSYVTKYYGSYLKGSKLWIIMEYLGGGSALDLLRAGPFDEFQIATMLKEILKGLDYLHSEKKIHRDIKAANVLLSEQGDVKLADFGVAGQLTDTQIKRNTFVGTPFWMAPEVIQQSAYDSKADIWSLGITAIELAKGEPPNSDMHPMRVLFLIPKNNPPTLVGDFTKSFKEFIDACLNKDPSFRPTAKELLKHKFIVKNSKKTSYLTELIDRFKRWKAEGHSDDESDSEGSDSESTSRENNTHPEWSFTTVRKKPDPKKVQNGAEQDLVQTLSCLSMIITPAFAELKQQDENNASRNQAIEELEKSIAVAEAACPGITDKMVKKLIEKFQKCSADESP
Assay [8] addresses T2, Tyrosine-protein kinase ZAP-70 (Homo sapiens) (UniProt P43403).
T2 sequence (whole entry): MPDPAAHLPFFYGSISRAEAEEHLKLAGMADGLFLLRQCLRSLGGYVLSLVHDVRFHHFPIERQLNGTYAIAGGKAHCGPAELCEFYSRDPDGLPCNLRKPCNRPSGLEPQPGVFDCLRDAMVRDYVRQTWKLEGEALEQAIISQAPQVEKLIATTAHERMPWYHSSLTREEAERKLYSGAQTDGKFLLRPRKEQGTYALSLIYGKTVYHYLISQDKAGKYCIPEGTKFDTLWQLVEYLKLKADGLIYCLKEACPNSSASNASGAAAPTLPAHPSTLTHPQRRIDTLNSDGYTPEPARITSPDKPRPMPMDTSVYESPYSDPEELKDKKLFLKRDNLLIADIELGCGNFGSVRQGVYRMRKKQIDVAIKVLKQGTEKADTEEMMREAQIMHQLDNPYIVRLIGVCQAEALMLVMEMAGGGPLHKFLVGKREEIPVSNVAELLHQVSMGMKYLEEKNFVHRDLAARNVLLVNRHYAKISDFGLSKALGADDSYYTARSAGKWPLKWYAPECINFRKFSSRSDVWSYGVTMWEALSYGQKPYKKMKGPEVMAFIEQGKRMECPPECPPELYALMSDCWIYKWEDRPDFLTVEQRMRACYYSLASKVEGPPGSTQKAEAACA
Kind of assay: Inhibition of human ZAP70 using poly[Glu:Tyr] (4:1) as substrate at 1 uM in presence of 32P-ATP by Hotspot assay relative to control; values are per cent of control.

For assay [9], the target named is Calcium/calmodulin-dependent protein kinase kinase 2 (Homo sapiens) (UniProt Q96RR4). In words: Inhibition of human CAMKK2 using myelin basic protein as substrate at 1 uM in presence of 32P-ATP by Hotspot assay relative to control; values are per cent of control.
Calcium/calmodulin-dependent protein kinase kinase 2 (Homo sapiens), sequence (Q96RR4 2-588 limits assumed): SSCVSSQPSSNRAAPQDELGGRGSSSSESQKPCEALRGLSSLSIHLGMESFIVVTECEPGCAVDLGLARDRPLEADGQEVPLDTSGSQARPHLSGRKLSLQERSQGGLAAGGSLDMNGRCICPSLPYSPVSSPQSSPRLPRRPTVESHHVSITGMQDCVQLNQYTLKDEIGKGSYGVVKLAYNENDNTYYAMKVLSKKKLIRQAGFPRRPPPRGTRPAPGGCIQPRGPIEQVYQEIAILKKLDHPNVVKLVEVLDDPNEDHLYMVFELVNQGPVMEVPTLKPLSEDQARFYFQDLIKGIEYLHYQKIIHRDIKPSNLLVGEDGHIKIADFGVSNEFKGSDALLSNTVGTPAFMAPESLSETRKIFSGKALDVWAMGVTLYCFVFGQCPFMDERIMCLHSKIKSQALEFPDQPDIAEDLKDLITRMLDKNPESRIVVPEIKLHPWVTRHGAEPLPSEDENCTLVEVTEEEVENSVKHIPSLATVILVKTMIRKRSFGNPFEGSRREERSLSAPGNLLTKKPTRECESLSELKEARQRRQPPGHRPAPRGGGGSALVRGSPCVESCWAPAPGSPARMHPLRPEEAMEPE
Assay [10] deals with Mitogen-activated protein kinase kinase kinase kinase 5 (Homo sapiens) (UniProt Q9Y4K4). Kind of assay: Inhibition of human KHS/MAP4K5 using myelin basic protein as substrate at 1 uM in presence of 32P-ATP by Hotspot assay relative to control; values are per cent of control.
Mitogen-activated protein kinase kinase kinase kinase 5 (Homo sapiens), sequence (Q9Y4K4 whole entry, looked up): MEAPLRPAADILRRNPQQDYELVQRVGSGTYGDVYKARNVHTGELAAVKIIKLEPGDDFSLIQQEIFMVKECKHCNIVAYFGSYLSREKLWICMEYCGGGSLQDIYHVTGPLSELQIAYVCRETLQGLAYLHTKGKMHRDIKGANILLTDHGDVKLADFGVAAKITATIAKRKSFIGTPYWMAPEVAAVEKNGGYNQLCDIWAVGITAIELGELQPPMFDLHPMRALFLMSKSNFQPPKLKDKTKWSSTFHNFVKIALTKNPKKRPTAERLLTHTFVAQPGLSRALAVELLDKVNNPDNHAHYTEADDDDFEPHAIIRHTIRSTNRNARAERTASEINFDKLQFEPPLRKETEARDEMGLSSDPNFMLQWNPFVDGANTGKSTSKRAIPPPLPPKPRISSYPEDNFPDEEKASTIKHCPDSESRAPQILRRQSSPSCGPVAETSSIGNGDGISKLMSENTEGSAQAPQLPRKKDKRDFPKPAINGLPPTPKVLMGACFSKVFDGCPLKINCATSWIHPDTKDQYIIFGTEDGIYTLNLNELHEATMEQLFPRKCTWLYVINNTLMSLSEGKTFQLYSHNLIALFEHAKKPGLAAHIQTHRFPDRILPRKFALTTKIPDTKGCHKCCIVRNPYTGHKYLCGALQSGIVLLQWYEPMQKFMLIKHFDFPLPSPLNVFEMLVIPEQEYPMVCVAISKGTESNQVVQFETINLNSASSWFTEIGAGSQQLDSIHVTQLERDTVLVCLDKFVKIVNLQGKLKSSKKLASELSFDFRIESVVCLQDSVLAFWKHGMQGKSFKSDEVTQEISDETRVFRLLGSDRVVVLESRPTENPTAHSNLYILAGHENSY

Macrophage-stimulating protein receptor (Homo sapiens), sequence (Q04912 25-304 limits assumed): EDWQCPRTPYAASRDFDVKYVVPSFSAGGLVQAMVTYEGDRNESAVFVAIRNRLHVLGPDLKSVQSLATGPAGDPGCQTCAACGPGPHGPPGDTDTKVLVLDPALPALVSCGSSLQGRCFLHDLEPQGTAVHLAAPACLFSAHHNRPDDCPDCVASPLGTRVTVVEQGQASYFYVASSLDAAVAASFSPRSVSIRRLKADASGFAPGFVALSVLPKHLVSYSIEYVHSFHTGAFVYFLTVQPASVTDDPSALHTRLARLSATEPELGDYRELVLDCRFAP
Macrophage-stimulating protein receptor (Homo sapiens), sequence (Q04912 310-1400 limits assumed): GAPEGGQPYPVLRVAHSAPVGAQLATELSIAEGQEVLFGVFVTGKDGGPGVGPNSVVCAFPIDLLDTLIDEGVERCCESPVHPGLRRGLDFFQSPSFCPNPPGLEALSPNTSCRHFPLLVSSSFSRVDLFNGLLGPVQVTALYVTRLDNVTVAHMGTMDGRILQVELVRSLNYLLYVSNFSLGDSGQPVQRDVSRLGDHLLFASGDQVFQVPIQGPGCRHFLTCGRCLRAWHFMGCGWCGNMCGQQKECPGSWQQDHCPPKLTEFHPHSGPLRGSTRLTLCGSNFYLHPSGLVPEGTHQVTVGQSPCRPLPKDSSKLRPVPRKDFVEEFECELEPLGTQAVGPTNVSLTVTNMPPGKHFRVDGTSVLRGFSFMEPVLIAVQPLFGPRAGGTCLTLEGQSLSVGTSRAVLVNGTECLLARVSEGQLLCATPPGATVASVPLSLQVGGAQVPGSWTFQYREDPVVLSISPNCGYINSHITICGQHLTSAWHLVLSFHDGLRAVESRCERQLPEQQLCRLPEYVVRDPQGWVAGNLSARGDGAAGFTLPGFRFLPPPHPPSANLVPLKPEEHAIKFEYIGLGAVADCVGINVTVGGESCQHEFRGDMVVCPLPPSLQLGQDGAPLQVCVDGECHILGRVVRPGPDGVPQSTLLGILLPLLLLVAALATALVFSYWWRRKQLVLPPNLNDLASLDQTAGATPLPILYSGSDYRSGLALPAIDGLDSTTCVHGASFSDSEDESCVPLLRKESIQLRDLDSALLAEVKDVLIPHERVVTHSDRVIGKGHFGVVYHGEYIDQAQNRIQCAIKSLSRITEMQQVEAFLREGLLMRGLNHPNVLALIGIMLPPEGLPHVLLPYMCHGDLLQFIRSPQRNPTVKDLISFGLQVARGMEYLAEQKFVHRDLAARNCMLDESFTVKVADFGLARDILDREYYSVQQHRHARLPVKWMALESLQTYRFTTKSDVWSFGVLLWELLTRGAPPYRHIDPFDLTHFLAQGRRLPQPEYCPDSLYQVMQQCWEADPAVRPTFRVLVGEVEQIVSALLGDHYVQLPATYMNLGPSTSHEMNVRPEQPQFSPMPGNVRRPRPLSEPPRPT

As to `Cc1cc(-c2cnc(N)c3c(-c4ccc5scnc5c4)csc23)n(C)n1`, the inhibition in assay [1] was 91.3%. Besides, the residual activity in assay [2] was determined as 85%; in the assay filed under Homo sapiens it was 94.9%; in assay [3], 41%; in [4] it was 60.4%; in [5] it was 8.67%; in assay [6], 53.4%. Moreover, the residual activity in assay [7] amounted to 93.5%; in [8] it was 89.8%; in [9], 87.7%; in assay [10] it was 64.3%.

On to `CC(C)S(=O)(=O)c1ccc2nccc(Nc3ccc4scnc4c3)c2c1`, for which the inhibition in [1] came out at 56.6%. Also, the residual activity was found to be 97.5% in assay [2]; 97.7% in the assay listed under Homo sapiens; 23.1% in assay [3]; 86.3% in assay [4]; 10.8% in assay [5]; 70.6% in [6]. Moreover, the residual activity came out at 95.9% in assay [7], 102% in [8], 92.3% in [9] and 109% in [10].

`CNC(=O)c1ccc2c(c1)ncn2-c1ccc(CC(=O)OC(C)(C)C)cc1`: the inhibition in [1] was determined as 97.8%. For the same compound, the residual activity is 96.1% in [2]; 101% in the assay filed under Homo sapiens; 76.1% in assay [3]; 90.1% in assay [4]; 29.9% in [5]; 96.7% in assay [6]. Further, the residual activity was determined as 97.5% in [7], 102% in assay [8], 87.7% in assay [9] and 89% in [10].

Broadly, the inhibition is the share of the control response that was lost under treatment.

Values taken from ChEMBL document CHEMBL5649166, “RIP3 induces apoptosis independent of pronecrotic kinase activity” (Mol Cell, 2014).
